Measured values: patent US20100041089A1, “IMPROVED METHOD FOR DETECTING CHEMICAL […]” (priority 2006, published 2010)

System: yeast genes (expressed mRNA)
Experiment: DNA chip measurement of expressed mRNA of yeast genes after culture with a toxic chemical substance
Type: cell-based, Saccharomyces cerevisiae S288C
Description: Yeast (Saccharomyces cerevisiae S288C (a SUC2mal mel gap2 CUP1)) were cultured at 25° C. on YPD medium (yeast extract 1%, polypeptone 2%, glucose 2%). One of toxic chemical substances was added to the cell at logarithmic growth phase, and the cell was further cultured for two hours. Cell was cultured without any chemical substance in the same condition, and was used as a control. Concentrations of the chemical substances were defined to inhibit the growth of the yeast but not lead to death.
After the completion of cultivation, the culture was centrifuged to collect the cells. To the cells, sodium acetate buffer (50 mM sodium acetate, 10 mM EDTA, 1% SDS) was added, and the mixture was shaken at 65° C. for five minutes, followed by returning to room temperature, and obtaining the supernatant, which procedure was repeated two times. To the supernatant, ½ amount of a solution of phenol/chloroform (1:1) was added, and the mixture was centrifuged to give a supernatant, an equal amount of chloroform was added, and the mixture was centrifuged to give a supernatant. To the supernatant, an equal amount of isopropanol containing 0.3 M sodium acetate was added, and the mixture was allowed to stand at room temperature for 30 minutes, after which the mixture was centrifuged to give sediment of the whole RNAs. Seventy % ethanol was added to the sediment, and the mixture was again centrifuged to give sediment, which was then dried and dissolved in water. mRNA was isolated from the whole RNAs as followings. In view of the fact that a poly A chain is attached to the 3′ terminus of mRNA, a polynucleotide having a poly T structure which was immobilized on the surface of latex beads was used to trap the mRNA, and then the mRNA was washed and eluted with spine column (Oligotex-dT30<Super>mRNA Purification Kit, Takara). Reverse transcription of the mRNA was conducted with a reverse transcriptase (Super Script II Reverse Transcriptase; catalogue No. 18064-014, GibcoBRL) using fluorescence-labeled nucleotides to give cDNAs that were introduced with Cy3-dUTP or Cy5-dUTP during the reverse transcription.
The labeled cDNAs were dissolved in TE buffer (10 mM Tris-HCl/1 mM EDTA, pH 8.0), and the solution was dropped on the DNA chip containing the whole genes of yeast (DNA Chip Research Inc. Japan) so that the cDNAs were hybridized on the DNA chip at 65° C. for over 12 hours. The fluoresces intensity of the DNA chip was read with a scanner, and the ratio relative to the fluorescence intensity resulting from the absence of chemical substance was estimated as the following, which is shown in Tables 1 to 9.
In the Tables, “Intensity” indicated in the rightmost column is a value of the level of expressed mRNA of each gene in control cells as divided by the average level of the expressions of the whole genes. A gene of which mRNA level is lower in control, and is higher in cases of addition of chemical substance, is especially useful in the detection of toxic substances.
Here, when a ratio of an amount of mRNA expressed in the presence of the chemical substance to an amount of mRNA expressed in the absence of the chemical substance is two or more, then it is considered significant.

S=C([S-])NCCNC(=S)[S-].[Zn+2] [(11), Zinc N,N′-ethylenebis(dithiocarbamate)]
The level of expressed mRNA in the presence of chemical substance/The level of expressed mRNA in the absence of chemical substance (yeast gene YAL053W, cultured two hours with substance): 2.3
The level of expressed mRNA in the presence of chemical substance/The level of expressed mRNA in the absence of chemical substance (yeast gene YAR028W, cultured two hours with substance): 0.9
The level of expressed mRNA in the presence of chemical substance/The level of expressed mRNA in the absence of chemical substance (yeast gene YBL048W, cultured two hours with substance): 2.0
The level of expressed mRNA in the presence of chemical substance/The level of expressed mRNA in the absence of chemical substance (yeast gene YBL107C, cultured two hours with substance): 2.9
The level of expressed mRNA in the presence of chemical substance/The level of expressed mRNA in the absence of chemical substance (yeast gene YBR008C (detoxification protein gene)): 9.4
The level of expressed mRNA in the presence of chemical substance/The level of expressed mRNA in the absence of chemical substance (yeast gene YBR072W (stress protein genes)): 6.3
The level of expressed mRNA in the presence of chemical substance/The level of expressed mRNA in the absence of chemical substance (yeast gene YBR096W, cultured two hours with the chemical substance): 1.2
The level of expressed mRNA in the presence of chemical substance/The level of expressed mRNA in the absence of chemical substance (yeast gene YBR269C, cultured two hours with substance): 1.2
The level of expressed mRNA in the presence of chemical substance/The level of expressed mRNA in the absence of chemical substance (yeast gene YCR102C, cultured two hours with substance): 13.5
The level of expressed mRNA in the presence of chemical substance/The level of expressed mRNA in the absence of chemical substance (yeast gene YDL023C, cultured two hours with the chemical substance): 3.5
The level of expressed mRNA in the presence of chemical substance/The level of expressed mRNA in the absence of chemical substance (yeast gene YDL072C, cultured two hours with substance): 1.4
The level of expressed mRNA in the presence of chemical substance/The level of expressed mRNA in the absence of chemical substance (yeast gene YDL169C, cultured two hours with substance): 1.2
The level of expressed mRNA in the presence of chemical substance/The level of expressed mRNA in the absence of chemical substance (yeast gene YDL204W, cultured two hours with substance): 3.2
The level of expressed mRNA in the presence of chemical substance/The level of expressed mRNA in the absence of chemical substance (yeast gene YDL218W, cultured two hours with substance): 5.7
The level of expressed mRNA in the presence of chemical substance/The level of expressed mRNA in the absence of chemical substance (yeast gene YDL222C, cultured two hours with substance): 2.6
The level of expressed mRNA in the presence of chemical substance/The level of expressed mRNA in the absence of chemical substance (yeast gene YDR031W, cultured two hours with substance): 1.2
The level of expressed mRNA in the presence of chemical substance/The level of expressed mRNA in the absence of chemical substance (yeast gene YDR070C, cultured two hours with substance): 4.1
The level of expressed mRNA in the presence of chemical substance/The level of expressed mRNA in the absence of chemical substance (yeast gene YDR077W (stress protein genes)): 6.8
The level of expressed mRNA in the presence of chemical substance/The level of expressed mRNA in the absence of chemical substance (yeast gene YDR330W, cultured two hours with substance): 0.9
The level of expressed mRNA in the presence of chemical substance/The level of expressed mRNA in the absence of chemical substance (yeast gene YDR391C, cultured two hours with substance): 1.9
The level of expressed mRNA in the presence of chemical substance/The level of expressed mRNA in the absence of chemical substance (yeast gene YDR411C, cultured two hours with substance): 1.3
The level of expressed mRNA in the presence of chemical substance/The level of expressed mRNA in the absence of chemical substance (yeast gene YDR486C, cultured two hours with substance): 1.4
The level of expressed mRNA in the presence of chemical substance/The level of expressed mRNA in the absence of chemical substance (yeast gene YDR511W, cultured two hours with substance): 1.2
The level of expressed mRNA in the presence of chemical substance/The level of expressed mRNA in the absence of chemical substance (yeast gene YDR533C, cultured two hours with substance): 7.7
The level of expressed mRNA in the presence of chemical substance/The level of expressed mRNA in the absence of chemical substance (yeast gene YDR545W, cultured two hours with substance): 0.7
The level of expressed mRNA in the presence of chemical substance/The level of expressed mRNA in the absence of chemical substance (yeast gene YEL001C, cultured two hours with substance): 1.2
The level of expressed mRNA in the presence of chemical substance/The level of expressed mRNA in the absence of chemical substance (yeast gene YEL033W, cultured two hours with the chemical substance): 1.2
The level of expressed mRNA in the presence of chemical substance/The level of expressed mRNA in the absence of chemical substance (yeast gene YER004W, cultured two hours with substance): 2.2
The level of expressed mRNA in the presence of chemical substance/The level of expressed mRNA in the absence of chemical substance (yeast gene YER035W, cultured two hours with substance): 1.4
The level of expressed mRNA in the presence of chemical substance/The level of expressed mRNA in the absence of chemical substance (yeast gene YER038C, cultured two hours with substance): 0.6
The level of expressed mRNA in the presence of chemical substance/The level of expressed mRNA in the absence of chemical substance (yeast gene YER079W, cultured two hours with substance): 2.1
The level of expressed mRNA in the presence of chemical substance/The level of expressed mRNA in the absence of chemical substance (yeast gene YER106W, cultured two hours with substance): 1.0
The level of expressed mRNA in the presence of chemical substance/The level of expressed mRNA in the absence of chemical substance (yeast gene YER158C, cultured two hours with substance): 2.3
The level of expressed mRNA in the presence of chemical substance/The level of expressed mRNA in the absence of chemical substance (yeast gene YER163C, cultured two hours with substance): 1.6
The level of expressed mRNA in the presence of chemical substance/The level of expressed mRNA in the absence of chemical substance (yeast gene YER175C, cultured two hours with substance): 1.1
The level of expressed mRNA in the presence of chemical substance/The level of expressed mRNA in the absence of chemical substance (yeast gene YFL006W, cultured two hours with substance): 1.2
The level of expressed mRNA in the presence of chemical substance/The level of expressed mRNA in the absence of chemical substance (yeast gene YFL010C, cultured two hours with substance): 1.4
The level of expressed mRNA in the presence of chemical substance/The level of expressed mRNA in the absence of chemical substance (yeast gene YFL024C, cultured two hours with substance): 0.6
The level of expressed mRNA in the presence of chemical substance/The level of expressed mRNA in the absence of chemical substance (yeast gene YFL032W, cultured two hours with substance): 1.1
The level of expressed mRNA in the presence of chemical substance/The level of expressed mRNA in the absence of chemical substance (yeast gene YFR015C, cultured for two hours with substance): 3.9
